Test results from PubChem BioAssay AID1919017 (Molecular Pharmacology Branch, DTP, NCI, 2023).

Test system: SW1271 complex spheroids with HUVEC/MSC, growth, % test/control
Experiment: Anticancer human tumor SW1271 cell line growth inhibition [AhR];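 also: spheroids exposed to agents for 7 days before readout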
Conditions: for IC50: curve of first compound; for viability, T/C: stronger effect = lower value; active = viability on the fitted dose curve at most 10% of control; inactive = the rest
From the text: Multicellular complex tumor spheroid response to aryl hydrocarbon receptor antagonists in combination with a variety of drugs and investigational agents in selected tumor cell lines
The current study was undertaken to assess response to aryl hydrocarbon receptor antagonists in combination with standard-of-care drugs and investigational agents in solid tumor complex spheroid models. Complex spheroids include a stromal component modeled by human endothelial cells (HUVEC) and fibroblasts modeled by human mesenchymal stem cells (MSCs). The concentration ranges selected for each drug and investigational agent were based upon clinically achievable concentrations if the clinical Cmax of the agent was known.
Compounds. The drugs and investigational agents: BAY 2416964 (NSC825713), GNF351 (NSC835774), CH-223191 (NSC835775), CPI-455 (NSC825282), aza-TdCyd (NSC777586), decitabine (NSC127716), belinostat (NSC758774), entinostat (NSC756642), pevonedistat (NSC761192), tazemetostat (NSC777109), talazoparib (NSC765396), olaparib (NSC753686), selinexor (NSC780203), nedisertib (M3814, NSC802822), bortezomib (NSC756655), venetoclax (NSC766270), doxorubicin (NSC123127), elimusertib (BAY189344, NSC800525), ceralasertib (AZD6738, NSC777638), TAK-243 (NSC785004), alisertib (NSC759677), etoposide (NSC141540), topotecan (NSC609699), eribulin (NSC707389), gemcitabine (NSC613327), carboplatin (NSC241240), cisplatin (NSC119875), and SN-38 (NSC673596) were obtained from the National Cancer Institute (NCI) Developmental Therapeutics Program Chemical Repository (32). The FDA-approved anticancer drug set is available from the Developmental Therapeutics Program at https://dtp.cancer.gov/organization/dscb/obtaining/available plates.htm. […] The stock solutions were prepared in dimethyl sulfoxide (DMSO, Sigma-Aldrich, St. Louis, MO, cat. D2650), except for the platinum compounds which were prepared in saline (Quality Biological, Gaithersburg, MD, cat. 114-055-101), at 800-fold the tested concentration and stored at -70 degrees C prior to their use. All drugs and investigational agents were tested over a range starting from a high concentration at or near the clinical Cmax and decreasing in half-log increments. If the clinical Cmax for an agent had not been determined, the highest concentration tested was 10 microM (Table 1).
Cell Culture. All cells were maintained in an incubator at 37 degrees C and 5% CO2 with 95% humidity. The PDC lines were cultured according to standard operating procedures established by the NCI PDMR (https://pdmr.cancer.gov). Briefly, all PDCs were thawed and cultured in Matrigel-coated flasks prepared with a working solution of 1X Ham's F-12 nutrient mix, without supplementation (Invitrogen, Waltham, MA, cat. 11765054), 100 U/mL penicillin-streptomycin (Invitrogen, cat. 15140122), and 2.5% Matrigel (Corning Inc., Corning, NY, cat. 354248) for the first three passages. All PDCs were cultured in complete DMEM/F-12 media containing advanced DMEM/F-12 (Invitrogen, cat. 12634028), 4.9% defined fetal bovine serum, heat inactivated (HyClone Laboratories Inc., Logan, UT, cat. SH30070.03HI), 389 ng/mL hydrocortisone (Sigma-Aldrich, cat. H4001), 9.7 ng/mL human EGF recombinant protein (Invitrogen, cat. PHG0313), 23.4 microg/mL adenine (Sigma-Aldrich, cat. A2786), 97.3 U/mL penicillin-streptomycin (Invitrogen, cat. 15140122), 1.9 mM L-glutamine (Invitrogen, cat. 25030081), and 9.7 microM Y-27632 dihydrochloride (Tocris Bioscience, Bristol, United Kingdom, cat. 1254). The PDCs were cultured in complete DMEM/F12 media without 10 microM Y-27632 dihydrochloride for at least two passages prior to the screen. The established cell lines NCI-H1341 and […] were cultured in DMEM/F-12, HEPES (Invitrogen, cat. 11330032), 5% defined fetal bovine serum (HyClone Laboratories Inc., cat. SH30070.03), ITS premix universal culture supplement [insulin (5 microg/mL), transferrin (5 microg/mL), and selenious acid (5 ng/mL)] […]

[1] = second compound 0.1 µM, first compound 0.0316 µM
[2] = second compound 0.1 µM, first compound 0.1 µM
[3] = second compound 0.1 µM, first compound 0.316 µM
[4] = second compound 0.1 µM, first compound 1 µM
[5] = second compound 0.1 µM, first compound 3.16 µM
[6] = second compound 0.1 µM, first compound 10 µM
[7] = second compound 0.316 µM, first compound 0.0316 µM
[8] = second compound 0.316 µM, first compound 0.1 µM
[9] = second compound 0.316 µM, first compound 0.316 µM
[10] = second compound 0.316 µM, first compound 1 µM
[11] = second compound 0.316 µM, first compound 3.16 µM
[12] = second compound 0.316 µM, first compound 10 µM
[13] = second compound 1 µM, first compound 0.0316 µM
[14] = second compound 1 µM, first compound 0.1 µM
[15] = second compound 1 µM, first compound 0.316 µM
[16] = second compound 1 µM, first compound 1 µM
[17] = second compound 1 µM, first compound 3.16 µM
[18] = second compound 1 µM, first compound 10 µM
[19] = second compound 3.16 µM, first compound 0.0316 µM
[20] = second compound 3.16 µM, first compound 0.1 µM
[21] = second compound 3.16 µM, first compound 0.316 µM
[22] = second compound 3.16 µM, first compound 1 µM
[23] = second compound 3.16 µM, first compound 3.16 µM
[24] = second compound 3.16 µM, first compound 10 µM
[25] = second compound 10 µM, first compound 0.0316 µM
[26] = second compound 10 µM, first compound 0.1 µM
[27] = second compound 10 µM, first compound 0.316 µM
[28] = second compound 10 µM, first compound 1 µM
[29] = second compound 10 µM, first compound 3.16 µM
[30] = second compound 10 µM, first compound 10 µM

CCc1c2c(nc3ccc(O)cc13)-c1cc3c(c(=O)n1C2)COC(=O)[C@]3(O)CC + CC(CO)NC(=O)c1cc(-c2ccc(Cl)cc2)nn(-c2cnn(C)c2)c1=O
inactive: viability, T/C (second compound 0.1 µM, first compound 0.000949 µM) 83% | viability, T/C (second compound 0.1 µM, first compound 0.003 µM) 83.5% | viability, T/C (second compound 0.1 µM, first compound 0.00949 µM) 66% | viability, T/C (second compound 0.1 µM, first compound 0.03 µM) 51% | viability, T/C (second compound 0.1 µM, first compound 0.0949 µM) 48.2% | viability, T/C (second compound 0.1 µM, first compound 0.3 µM) 47.3% | viability, T/C (second compound 0.316 µM, first compound 0.000949 µM) 72.8% | viability, T/C (second compound 0.316 µM, first compound 0.003 µM) 79% | viability, T/C (second compound 0.316 µM, first compound 0.00949 µM) 67.9% | viability, T/C (second compound 0.316 µM, first compound 0.03 µM) 63.2% | viability, T/C (second compound 0.316 µM, first compound 0.0949 µM) 56.3% | viability, T/C (second compound 0.316 µM, first compound 0.3 µM) 58.8% | viability, T/C (second compound 1 µM, first compound 0.000949 µM) 73.4% | viability, T/C (second compound 1 µM, first compound 0.003 µM) 85.9% | viability, T/C (second compound 1 µM, first compound 0.00949 µM) 56.6% | viability, T/C (second compound 1 µM, first compound 0.03 µM) 67% | viability, T/C (second compound 1 µM, first compound 0.0949 µM) 54% | viability, T/C (second compound 1 µM, first compound 0.3 µM) 42% | viability, T/C (second compound 3.16 µM, first compound 0.000949 µM) 74.1% | viability, T/C (second compound 3.16 µM, first compound 0.003 µM) 73.8% | viability, T/C (second compound 3.16 µM, first compound 0.00949 µM) 58% | viability, T/C (second compound 3.16 µM, first compound 0.03 µM) 55.1% | viability, T/C (second compound 3.16 µM, first compound 0.0949 µM) 49.1% | viability, T/C (second compound 3.16 µM, first compound 0.3 µM) 50.5% | viability, T/C (second compound 10 µM, first compound 0.000949 µM) 71.6% | viability, T/C (second compound 10 µM, first compound 0.003 µM) 65.8% | viability, T/C (second compound 10 µM, first compound 0.00949 µM) 55.5% | viability, T/C (second compound 10 µM, first compound 0.03 µM) 58.3% | viability, T/C (second compound 10 µM, first compound 0.0949 µM) 45.7% | viability, T/C (second compound 10 µM, first compound 0.3 µM) 54.7%
0.138 µM: IC50 (second compound 1 µM)
0.0299 µM: IC50 (second compound 0.1 µM)
> 0.3 µM: IC50 (second compound 0.316 µM) | IC50 (second compound 3.16 µM) | IC50 (second compound 10 µM)

Nc1ccn(C2OC(CO)C(O)C2(F)F)c(=O)n1 (stereo not given) + CC(CO)NC(=O)c1cc(-c2ccc(Cl)cc2)nn(-c2cnn(C)c2)c1=O
> 10 µM: IC50 (second compound 0.1 µM) | IC50 (second compound 1 µM)
inactive: viability, T/C [1] 59% | viability, T/C [2] 55% | viability, T/C [3] 52.6% | viability, T/C [4] 60.9% | viability, T/C [5] 54.9% | viability, T/C [6] 63.9% | viability, T/C [7] 56.5% | viability, T/C [8] 59.8% | viability, T/C [9] 46.3% | viability, T/C [10] 50.3% | viability, T/C [11] 54.9% | viability, T/C [12] 46.1% | viability, T/C [13] 53.1% | viability, T/C [14] 60.3% | viability, T/C [15] 59% | viability, T/C [16] 61.2% | viability, T/C [17] 53.6% | viability, T/C [18] 55.3% | viability, T/C [19] 48.4% | viability, T/C [20] 58.7% | viability, T/C [21] 56.1% | viability, T/C [22] 59.4% | viability, T/C [23] 47.8% | viability, T/C [24] 42.4% | viability, T/C [25] 45.3% | viability, T/C [26] 58.1% | viability, T/C [27] 57.4% | viability, T/C [28] 59.8% | viability, T/C [29] 54.5% | viability, T/C [30] 44%
2.07 µM: IC50 (second compound 0.316 µM)
5.27 µM: IC50 (second compound 10 µM)
3.71 µM: IC50 (second compound 3.16 µM)

O=C(c1cc(Cc2n[nH]c(=O)c3ccccc23)ccc1F)N1CCN(C(=O)C2CC2)CC1 + CC(CO)NC(=O)c1cc(-c2ccc(Cl)cc2)nn(-c2cnn(C)c2)c1=O
> 10 µM: IC50 (second compound 0.1 µM) | IC50 (second compound 0.316 µM) | IC50 (second compound 1 µM) | IC50 (second compound 3.16 µM) | IC50 (second compound 10 µM)
inactive: viability, T/C [1] 84.4% | viability, T/C [2] 95.4% | viability, T/C [3] 100% | viability, T/C [4] 82.1% | viability, T/C [5] 88.2% | viability, T/C [6] 78.8% | viability, T/C [7] 79.8% | viability, T/C [8] 77.9% | viability, T/C [9] 75.8% | viability, T/C [10] 81.8% | viability, T/C [11] 77.7% | viability, T/C [12] 75.8% | viability, T/C [13] 79.7% | viability, T/C [14] 99.7% | viability, T/C [15] 83.8% | viability, T/C [16] 67.8% | viability, T/C [17] 78% | viability, T/C [18] 103% | viability, T/C [19] 76.9% | viability, T/C [20] 79.3% | viability, T/C [21] 79.8% | viability, T/C [22] 92.2% | viability, T/C [23] 68.5% | viability, T/C [24] 82.5% | viability, T/C [25] 67.8% | viability, T/C [26] 67.3% | viability, T/C [27] 76.2% | viability, T/C [28] 81.7% | viability, T/C [29] 81.2% | viability, T/C [30] 60.6%
